Results published in ChEMBL document CHEMBL1201862, “PubChem BioAssay data set” (2004).
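Interpolation was linear, between the two tested concentrations surrounding the appropriate level; five concentrations were tested over 48 hours in 96-well plates. GI50 marks 50% less growth.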 The source made the active and inactive calls. No stated cut-off is given here; in the data, active = GI50 up to about 1.1 µM and inactive = higher.

How the values were obtained:
Test in all cases: NCI-60 cell line screen, 48 h
A498 = system: A498
COLO 205 = system: COLO 205
DU-145 = system: DU-145
EKVX = system: EKVX
HOP-62 = system: HOP-62
HT-29 = system: HT-29
LOX IMVI = system: LOX IMVI
M14 = system: M14
MDA-MB-231 = system: MDA-MB-231
Malme-3M = system: Malme-3M
NCI-H460 = system: NCI-H460
NCI-H522 = system: NCI-H522
NCI/ADR-RES = system: NCI/ADR-RES
OVCAR-4 = system: OVCAR-4
SF-295 = system: SF-295
SF-539 = system: SF-539
SNB-75 = system: SNB-75
SW-620 = system: SW-620
U-251 = system: U-251
UACC-257 = system: UACC-257

Row | Compound | GI50 (A498) | GI50 (COLO 205) | GI50 (DU-145) | GI50 (EKVX) | GI50 (HOP-62) | GI50 (HT-29) | GI50 (LOX IMVI) | GI50 (M14) | GI50 (MDA-MB-231) | GI50 (Malme-3M) | GI50 (NCI-H460) | GI50 (NCI-H522) | GI50 (NCI/ADR-RES) | GI50 (OVCAR-4) | GI50 (SF-295) | GI50 (SF-539) | GI50 (SNB-75) | GI50 (SW-620) | GI50 (U-251) | GI50 (UACC-257)
1 | Oc1cc(-c2ccccc2Cl)nc2cc3c(cc12)OCO3 | 0.116 µM (active) | 0.0507 µM (active) | 0.121 µM (active) | 0.155 µM (active) | 0.132 µM (active) | 0.0676 µM (active) | 0.0541 µM (active) | 0.11 µM (active) | 0.143 µM (active) | 0.0598 µM (active) | 0.0719 µM (active) | 0.0653 µM (active) | 0.0575 µM (active) | 2.76 µM (inactive) | 0.107 µM (active) | 0.103 µM (active) | 30.7 µM (inactive) | 0.0698 µM (active) | 0.0736 µM (active) | 0.443 µM (active)
2 | c1ccc2c(c1)[nH]c1c3ccccc3sc21 | > 100 µM (inactive) | > 100 µM (inactive) | > 100 µM (inactive) | 26.4 µM (inactive) | > 100 µM (inactive) | > 100 µM (inactive) | > 100 µM (inactive) | > 100 µM (inactive) | > 100 µM (inactive) | > 100 µM (inactive) | > 100 µM (inactive) | > 100 µM (inactive) | > 100 µM (inactive) | > 100 µM (inactive) | 38.1 µM (inactive) | > 100 µM (inactive) | 8.41 µM (inactive) | > 100 µM (inactive) | 89.3 µM (inactive) | 36.5 µM (inactive)
3 | C[N+](C)([O-])C12CC3CC(CC(C3)C1)C2 | 22 µM (inactive) | 27 µM (inactive) | 37.2 µM (inactive) | 21.4 µM (inactive) | 24 µM (inactive) | 35.6 µM (inactive) | 27.2 µM (inactive) | 25.7 µM (inactive) | > 100 µM (inactive) | 54.3 µM (inactive) | 43.7 µM (inactive) | 27.2 µM (inactive) | 31.6 µM (inactive) | 33.1 µM (inactive) | 30 µM (inactive) | 23.4 µM (inactive) | 28.2 µM (inactive) | 41.8 µM (inactive) | 37.4 µM (inactive) | 39.2 µM (inactive)
4 | CC(C)C(Br)CC/C(CBr)=C(\Cl)CCl (stereo not given) | 18.6 µM (inactive) | 3.4 µM (inactive) | 12.6 µM (inactive) | 17.9 µM (inactive) | 16.3 µM (inactive) | 2.07 µM (inactive) | 0.355 µM (active) | 1.79 µM (inactive) | 2.64 µM (inactive) | 5.37 µM (inactive) | 12.5 µM (inactive) | 0.689 µM (active) | 3.33 µM (inactive) | 2.5 µM (inactive) | 15.1 µM (inactive) | 3.59 µM (inactive) | 5.19 µM (inactive) | 1.82 µM (inactive) | 6.25 µM (inactive) | 3.03 µM (inactive)
5 | Cc1ccc(Nc2nc(=O)c3c4ccccc4n(C(=O)OC(C)(C)C)c3s2)cc1 | 39.1 µM (inactive) | 35.4 µM (inactive) | 33.7 µM (inactive) | 29.1 µM (inactive) | 27.9 µM (inactive) | 30.1 µM (inactive) | 18.7 µM (inactive) | 14.7 µM (inactive) | 33.1 µM (inactive) | 28.4 µM (inactive) | 15.7 µM (inactive) | 22.5 µM (inactive) | 10.6 µM (inactive) | 37.9 µM (inactive) | 23 µM (inactive) | 26.6 µM (inactive) | > 100 µM (inactive) | 28.4 µM (inactive) | 30.1 µM (inactive) | 51.1 µM (inactive)
